The record followed here is BindingDB's records for doi:10.1016/j.bmcl.2003.12.063 (Sankyo, 2004).

Molecules are shown by their SMILES.

By IC50 is commonly meant the midpoint of a concentration-inhibition curve. A higher IC50 goes with a need for much substance.

The assay deals with Ileal sodium/bile acid cotransporter (Mesocricetus auratus). The experiment in a line: In vitro Inhibition of apical sodium-dependent bile acid transporter by measuring the uptake of [3H]taurocholate in hamster ileal ring.

The compound `CCC(CC)CC(=O)c1c(C(=O)OC)c(-c2ccc(OC)c(OC)c2)c2c(OC)c(OC)c(OC)cc2c1OC1O[C@H](C(=O)O)[C@@H](O)[C@H](O)[C@H]1O` (stereo partly drawn) [(2S,3S,4S,5R)-6-[4-(3,4-Dimethoxy-phenyl)-2-(3-ethyl-pentanoyl)-5,6,7-trimethoxy-3-methoxycarbonyl-naphthalen-1-yloxy]-3,4,5-trihydroxy-tetrahydro-pyran-2-carboxylic acid] came in with an IC50 of 2800 nM.

With `CCC(CC)CC(=O)c1c(C(=O)OC)c(-c2ccc(OC)c(OC)c2)c2c(OC)c(OC)c(OC)cc2c1O` [1-(3,4-Dimethoxy-phenyl)-3-(3-ethyl-pentanoyl)-4-hydroxy-6,7,8-trimethoxy-naphthalene-2-carboxylic acid methyl ester], the IC50 was > 185000 nM.

As for `CCCCC1(CCCC)CS(=O)(=O)c2ccc(N(C)C)cc2[C@@H](c2ccc(OC)cc2)[C@H]1O` [(4R,5R)-3,3-Dibutyl-7-dimethylamino-5-(4-methoxy-phenyl)-1,1-dioxo-2,3,4,5-tetrahydro-1H-1lambda*6*-benzo[b]thiepin-4-ol], the half-maximal inhibitory concentration (IC50) is > 63000 nM.

Turning to `CCN(C(=O)c1cn(-c2cc(OC)cc(OC)c2)c2cc(OCCCCCCCC[N+]34CCN(CC3)CC4)ccc2c1=O)c1cc(F)cc(F)c1` [1-{8-[3-[(3,5-Difluoro-phenyl)-ethyl-carbamoyl]-1-(3,5-dimethoxy-phenyl)-4-oxo-1,4-dihydro-quinolin-7-yloxy]-octyl}-4-aza-1-azonia-bicyclo[2.2.2]octane; bromide], 1070 nM corresponded to half-maximal inhibition (IC50).

Compound `CCN(C(=O)c1cn(-c2cc(OC)cc(OC)c2)c2cc(OCCCCCCC[N+]34CCN(CC3)CC4)ccc2c1=O)c1cc(F)cc(F)c1` [1-{7-[3-[(3,5-Difluoro-phenyl)-ethyl-carbamoyl]-1-(3,5-dimethoxy-phenyl)-4-oxo-1,4-dihydro-quinolin-7-yloxy]-heptyl}-4-aza-1-azonia-bicyclo[2.2.2]octane; bromide] yielded an IC50 of 770 nM.
